Converted amounts (≈) assume the structure as drawn.
Experiments:
[1] = test system: HCMV recombinant mutant virus (RV145); experiment: HCMV microtiter plate assay (beta-glucuronidase reporter); assay type: cell-based, Human Cytomegalovirus; settings: HCMV in human foreskin fibroblasts
Summary of the method: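 Replication was read out as virus-encoded β-glucuronidase activity, measured with a chromogenic or fluorogenic glucuronide substrate in cell lysates at 96 h post-infection. Infection of human foreskin fibroblasts with RV145 took place with compound present. IC50 was derived from a range of inhibitor amounts.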

HSV-1 = experiment: HSV Antiviral (ELISA) assay; assay type: cell-based; settings: HSV-1 in Vero cells
Summary of the method: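 Replication measured as glycoprotein D signal in fixed cells: anti-gD antibody plus β-galactosidase-linked secondary, fluorogenic substrate read at 365/450 nm. Vero cells (2% FBS DMEM) received compound 30 min pre-infection, HSV-1 MOI 0.006, ~24 h incubation; IC50 relative to no-compound fluorescence.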

VZV strain Ellen = experiment: VZV Antiviral (ELISA) assay; assay type: cell-based; settings: VZV strain Ellen in HFF cells; for % inhibition 10 ug/ml VZV: at 10 ug/ml
Summary of the method: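 Cell-based VZV (Ellen) spread assay in HFF, 3-day compound exposure in 2% FBS medium. Viral antigen quantified by fluorescent β-galactosidase ELISA; IC50 from inhibition of signal.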

Row | SMILES | IC50 (ug/ml) HCMV [1] [µg/mL] | IC50 (ug/ml) HSV (HSV-1) [µg/mL] | IC50 (ug/ml) VZV (VZV strain Ellen) [µg/mL] | % inhibition 10 ug/ml VZV (VZV strain Ellen) [%]
1 | NNC(=O)c1cccc(NC(=S)Nc2ccc(NC(=O)c3csnn3)cc2)c1 [Example 449] | 1.6 (≈ 3.87 µM) | >10 | >10 | 
2 | CC(C)c1cccc(NC(=S)Nc2ccc(NC(=O)c3csnn3)cc2)c1 [Example 450] | 0.05 (≈ 0.126 µM) | >10 | >10 | 
3 | CC(C)c1cccc(NC(=S)Nc2ccc(NC(=O)c3ccco3)cc2)c1 [Example 451] | 0.15 (≈ 0.395 µM) | 8 (≈ 21.1 µM) | >10 | 
4 | N#Cc1cccc(NC(=S)Nc2ccc(NC(=O)c3csnn3)cc2)c1 [Example 453] | 0.07 (≈ 0.184 µM) | >10 | 3 (≈ 7.89 µM) | 
5 | CN(C)c1cccc(NC(=S)Nc2ccc(NC(=O)c3ccco3)cc2)c1 [Example 455] | 0.3 (≈ 0.788 µM) | >10 | >10 | 30
6 | Cc1cccc(NC(=S)Nc2ccc(NC(=O)c3csnn3)cc2)c1 [Example 456] | 0.07 (≈ 0.189 µM) | >10 | >10 | 12
7 | O=C(Nc1ccc(NC(=S)Nc2cccc(C(F)(F)F)c2)cc1)c1csnn1 [Example 457] | 0.019 (≈ 0.0449 µM) | >10 | >10 | 26
8 | CC(=O)Nc1cccc(NC(=S)Nc2ccc(NC(=O)c3ccco3)cc2)c1 [Example 462] | 1 (≈ 2.54 µM) | >10 | >10 | 6
9 | CC(O)c1cccc(NC(=S)Nc2ccc(NC(=O)c3csnn3)cc2)c1 (stereo not shown) [Example 464] | 0.15 (≈ 0.375 µM) | >10 | >10 | 25
10 | Nc1cc(Cl)cc(NC(=S)Nc2ccc(NC(=O)c3csnn3)cc2)c1 [Example 466] | 0.011 (≈ 0.0272 µM) | >10 | >10 | 93
11 | COc1cc(NC(=S)Nc2ccc(NC(=O)c3ccco3)cc2)cc(OC)c1 [Example 467] | 0.12 (≈ 0.302 µM) | >10 | >15 | 93
12 | COc1cc(NC(=S)Nc2ccc(NC(=O)c3csnn3)cc2)cc(OC)c1 [Example 468] | 0.06 (≈ 0.144 µM) | >10 | >10 | 50
13 | COC(=O)c1cc(NC(=S)Nc2ccc(NC(=O)c3ccco3)cc2)cc(C(=O)OC)c1 [Example 469] | 0.1 (≈ 0.221 µM) | >10 | >10 | 54
14 | COc1cc(OC)c(NC(=S)Nc2ccc(NC(=O)c3ccno3)cc2)cc1Cl [Example 470] | 0.7 (≈ 1.62 µM) | 0.6 (≈ 1.39 µM) | >10 | 17
15 | CC(O)c1cccc(NC(=S)Nc2ccc(NC(=O)c3ccco3)cc2)c1 (stereo not shown) [Example 472] | 0.8 (≈ 2.1 µM) | >10 | >10 | 31
16 | COc1cccc(NC(=S)Nc2ccc(NC(=O)c3ccco3)cc2)c1 [Example 473] | 0.3 (≈ 0.816 µM) | >10 | >10 | 40

Row | SMILES | IC50 (ug/ml) HCMV [1] [µg/mL] | IC50 (ug/ml) HSV (HSV-1) [µg/mL] | IC50 (ug/ml) VZV (VZV strain Ellen) [µg/mL] | % inhibition 10 ug/ml VZV (VZV strain Ellen) [%]
17 | O=C(Nc1ccc(NC(=S)Nc2cccc(O)c2)cc1)c1ccco1 [Example 474] | 1 (≈ 2.83 µM) | >10 | >10 | 22
18 | CC(=O)Nc1cccc(NC(=S)Nc2ccc(NC(=O)c3csnn3)cc2)c1 [Example 478] | 0.4 (≈ 0.97 µM) | >10 | >10 | 31
19 | CN(C)c1cccc(NC(=S)Nc2ccc(NC(=O)c3csnn3)cc2)c1 [Example 479] | 0.1 (≈ 0.251 µM) | >10 | >10 | 30
20 | O=C(Nc1ccc(NC(=S)Nc2ccc3[nH]ncc3c2)cc1)c1ccco1 [Example 481] | 0.5 (≈ 1.32 µM) | >10 | >10 | 32
21 | O=C(Nc1ccc(NC(=S)Nc2ccc3scnc3c2)cc1)c1ccco1 [Example 482] | 0.3 (≈ 0.76 µM) | 9 (≈ 22.8 µM) | >10 | 33
22 | COC(=O)c1cc(NC(=S)Nc2ccc(NC(=O)c3csnn3)cc2)cc(C(=O)OC)c1 [Example 485] | 0.03 (≈ 0.0636 µM) | >10 | >10 | 11
23 | CC(N=[N+]=[N-])c1ccc(NC(=S)Nc2ccc(NC(=O)c3ccco3)cc2)cc1Cl (stereo not shown) [Example 486] | 0.045 (≈ 0.102 µM) | >10 | >10 | 22
24 | O=C(Nc1ccc(NC(=S)Nc2cccc(CO)c2)cc1)c1ccco1 [Example 488] | 1.2 (≈ 3.27 µM) | >10 | >10 | 13
25 | CN(C)c1ccc(Cl)cc1NC(=S)Nc1ccc(NC(=O)c2ccco2)cc1 [Example 489] | 0.17 (≈ 0.41 µM) | 5 (≈ 12.1 µM) | 3.5 (≈ 8.44 µM) | 99
26 | O=C(Nc1ccc(NC(=S)Nc2ccc3[nH]cnc3c2)cc1)c1ccco1 [Example 494] | 3.5 (≈ 9.27 µM) | >10 | >10 | 6
27 | Cc1nc2cc(NC(=S)Nc3ccc(NC(=O)c4ccco4)cc3)ccc2[nH]1 [Example 495] | 3 (≈ 7.66 µM) | >10 | >10 | 27
28 | CN(C)c1ccc(Cl)cc1NC(=S)Nc1ccc(NC(=O)c2csnn2)cc1 [Example 500] | 0.021 (≈ 0.0485 µM) | >10 | >10 | 48
29 | Nc1nccc(-c2ccc(NC(=S)Nc3ccc(NC(=O)c4csnn4)cc3)cc2Cl)n1 [Example 501] | 0.032 (≈ 0.0663 µM) | >10 | >10 | 10
30 | CN(C)c1c(Cl)cccc1NC(=S)Nc1ccc(NC(=O)c2csnn2)cc1 [Example 503] | 0.053 (≈ 0.122 µM) | 8 (≈ 18.5 µM) | >10 | 64
31 | CN(C)c1c(Cl)cccc1NC(=S)Nc1ccc(NC(=O)c2ccco2)cc1 [Example 505] | 0.2 (≈ 0.482 µM) | 10 (≈ 24.1 µM) | 8 (≈ 19.3 µM) | 79
32 | O=C(Nc1ccc(NC(=S)Nc2cccc(I)c2)cc1)c1csnn1 [Example 508] | 0.013 (≈ 0.027 µM) | >10 | >10 | 7

Reference: patent publication US6426355B1, “Heterocyclic carboxamide-containing thiourea inhibitors of herpes viruses containing phenylenediamine group” (American Home Products, priority 1998, dated 2002)
